Measured values reported in patent US20260263448A1, “CONTROLLED RELEASE INJECTABLE CARIPRAZINE FORMULATION” (Richter Gedeon Nyrt., priority 2021, published 2026).
Converted amounts (≈) assume the structure as drawn. Where a name gives a salt, the structure may show the parent alone. Read-outs that look alike come from different tables or passages of the source.

Assay: Solubility at different pH values (37° C.)
Type: physicochemical
Settings: for solubility: aqueous buffer, read-out: Solubility (average, mg/ml); for Solubility in the pH-range of human muscle and subcutaneous tissues: pH 6.8-7.5

Compound	solubility (pH = 3, 37° C.)	solubility (pH = 4.5, 37° C.)	solubility (pH = 5.5, 37° C.)	solubility (pH = 7.5, 37° C.)	Solubility in the pH-range of human muscle and subcutaneous tissues	Solubility category (USP) (pH = 3, 37° C.)	Solubility category (USP) (pH = 4.5, 37° C.)	Solubility category (USP) (pH = 5.5, 37° C.)	Solubility (average, mg/ml) (pH = 6.8, 37° C.)	Solubility category (USP) (pH = 6.8, 37° C.)	Solubility category (USP) (pH = 7.5, 37° C.)	solubility (pH = 4.4, 37° C.)	solubility (pH = 6.8, 37° C.)	Solubility category (USP) (pH = 4.4, 37° C.)	Solubility (average, mg/ml) (pH = 7.4, 37° C.)	Solubility category (USP) (pH = 7.4, 37° C.)
CN(C)C(=O)N[C@H]1CC[C@H](CCN2CCN(c3cccc(Cl)c3Cl)CC2)CC1 [Cariprazine hydrochloride]	6 mg/mL	13.8 mg/mL	0.27 mg/mL	0.001 mg/mL	practically insoluble	Slightly soluble	Sparingly soluble	Very slightly soluble	0.005 mg/mL	Practically insoluble	Practically insoluble	–	–	–	–	–
CN(C)C(=O)N[C@H]1CC[C@H](CCN2CCN(c3cccc(Cl)c3Cl)CC2)CC1 [Cariprazine base, trans-N-{4-[2-[4-(2,3-dichlorophenyl)-piperazin-1-yl]-ethyl]-cyclohexyl}-N′,N′-dimethylurea]	0.204 mg/mL (≈ 477 µM)	–	–	–	practically insoluble	Very slightly soluble	–	–	–	Practically insoluble	–	0.357 mg/mL (≈ 835 µM)	0.0007 mg/mL (≈ 1.64 µM)	Very slightly soluble	not detectable	Practically insoluble
